Common to all, as to assay: relative viability (nuclei count vs DMSO), 5 days (fraction); higher = more cells survive
Compound in the assay “Shikonin + Lapatinib”: CC(C)=CC[C@@H](O)C1=CC(=O)c2c(O)ccc(O)c2C1=O [Shikonin] + CS(=O)(=O)CCNCc1ccc(-c2ccc3ncnc(Nc4ccc(OCc5cccc(F)c5)c(Cl)c4)c3c2)o1 [Lapatinib] (partner 2 µM)
Summed up:
(§1)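 Lung cancer cell lines in 1536-well plates got either a single drug or a fixed anchor-drug dose together with five library-drug doses (not always all listed) in √10 steps, by pin tool, on the day after seeding. Nuclei were counted after 5 days, and relative viability is the treated-to-vehicle ratio of nuclei counts. Values are medians of duplicate plates.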

Compound in the assay “Shikonin + Foretinib”: CC(C)=CC[C@@H](O)C1=CC(=O)c2c(O)ccc(O)c2C1=O [Shikonin] + COc1cc2c(Oc3ccc(NC(=O)C4(C(=O)Nc5ccc(F)cc5)CC4)cc3F)ccnc2cc1OCCCN1CCOCC1 [Foretinib] (partner 0.25 µM)
Summed up: as §1

Compound in assay [1]: CC(C)N(CCCNC(=O)Nc1ccc(C(C)(C)C)cc1)C[C@H]1O[C@@H](n2ccc3c(N)ncnc32)[C@H](O)[C@@H]1O + O=C(c1cc(Cc2n[nH]c(=O)c3ccccc23)ccc1F)N1CCN(C(=O)C2CC2)CC1 [Olaparib] (partner 8 µM)
Summed up: as §1

Compound in assay [2]: CC(C)N(CCCNC(=O)Nc1ccc(C(C)(C)C)cc1)C[C@H]1O[C@@H](n2ccc3c(N)ncnc32)[C@H](O)[C@@H]1O + COc1cccc2cc(-c3nc([C@H]4CC[C@H](C(=O)O)CC4)n4ncnc(N)c34)[nH]c12 [OSI-027] (partner 0.5 µM)
Summed up: as §1

As for NCI-H727, the relative viability with Shikonin + Lapatinib (first compound 0.01 µM) was found to be 0.923; in the assay with Shikonin + Lapatinib (first compound 0.1 µM), 0.96; in the assay with Shikonin + Lapatinib (first compound 0.3162 µM) it was 0.745; in the assay with Shikonin + Lapatinib (first compound 1 µM), 0.604; with Shikonin + Foretinib (first compound 0.01 µM), 0.864; in the assay with Shikonin + Foretinib (first compound 0.1 µM), 0.837. Further, the relative viability with Shikonin + Foretinib (first compound 0.3162 µM) is 0.905; in the assay with Shikonin + Foretinib (first compound 1 µM), 0.883; in assay [1] (first compound 0.08 µM) it was 0.587; in assay [1] (first compound 0.253 µM) it was 0.676; in assay [1] (first compound 0.8 µM) it was 0.673; in assay [1] (first compound 2.53 µM), 0.759. Besides, the relative viability in assay [1] (first compound 8 µM) stood at 0.647; in assay [2] (first compound 0.08 µM) it was 0.635; in assay [2] (first compound 0.253 µM), 0.597; in assay [2] (first compound 0.8 µM), 0.521; in assay [2] (first compound 2.53 µM) it was 0.495; in assay [2] (first compound 8 µM), 0.666.

Consider NCI-H838, for which the relative viability with Shikonin + Lapatinib (first compound 0.01 µM) was 1.02; in the assay with Shikonin + Lapatinib (first compound 0.1 µM), 1.03; with Shikonin + Lapatinib (first compound 0.3162 µM), 0.979; with Shikonin + Lapatinib (first compound 1 µM) it was 0.996; in the assay with Shikonin + Foretinib (first compound 0.01 µM) it was 1.08; with Shikonin + Foretinib (first compound 0.1 µM), 1.16. Besides, the relative viability in the assay with Shikonin + Foretinib (first compound 0.3162 µM) was found to be 1.2; with Shikonin + Foretinib (first compound 1 µM), 0.999; in assay [1] (first compound 0.08 µM) it was 0.75; in assay [1] (first compound 0.253 µM) it was 0.829; in assay [1] (first compound 0.8 µM), 0.794; in assay [1] (first compound 2.53 µM), 0.812. In addition, the relative viability in assay [1] (first compound 8 µM) came out at 0.728; in assay [2] (first compound 0.08 µM), 0.359; in assay [2] (first compound 0.253 µM), 0.408; in assay [2] (first compound 0.8 µM), 0.367; in assay [2] (first compound 2.53 µM), 0.388; in assay [2] (first compound 8 µM), 0.476.

As to NCI-H1355, the relative viability in the assay with Shikonin + Lapatinib (first compound 0.01 µM) is 1.07; with Shikonin + Lapatinib (first compound 0.1 µM), 1.05; with Shikonin + Lapatinib (first compound 0.3162 µM) it was 1.07; in the assay with Shikonin + Lapatinib (first compound 1 µM) it was 1.05; with Shikonin + Foretinib (first compound 0.01 µM), 1.03; with Shikonin + Foretinib (first compound 0.1 µM) it was 1.16. Moreover, the relative viability is 1.04 in the assay with Shikonin + Foretinib (first compound 0.3162 µM); 1.04 with Shikonin + Foretinib (first compound 1 µM); 0.695 in assay [1] (first compound 0.08 µM); 0.776 in assay [1] (first compound 0.253 µM); 0.667 in assay [1] (first compound 0.8 µM); 0.754 in assay [1] (first compound 2.53 µM). In addition, the relative viability in assay [1] (first compound 8 µM) amounted to 0.716; in assay [2] (first compound 0.08 µM), 0.375; in assay [2] (first compound 0.253 µM), 0.473; in assay [2] (first compound 0.8 µM), 0.374; in assay [2] (first compound 2.53 µM), 0.472; in assay [2] (first compound 8 µM), 0.428.

Regarding NCI-H1395, the relative viability in the assay with Shikonin + Lapatinib (first compound 0.01 µM) is 0.924; with Shikonin + Lapatinib (first compound 0.1 µM) it was 1.26; with Shikonin + Lapatinib (first compound 0.3162 µM) it was 0.923; with Shikonin + Lapatinib (first compound 1 µM), 0.895; with Shikonin + Foretinib (first compound 0.01 µM), 0.955; with Shikonin + Foretinib (first compound 0.1 µM), 0.949. Also, the relative viability was 0.948 with Shikonin + Foretinib (first compound 0.3162 µM); 0.939 with Shikonin + Foretinib (first compound 1 µM); 0.496 in assay [1] (first compound 0.08 µM); 0.443 in assay [1] (first compound 0.253 µM); 0.405 in assay [1] (first compound 0.8 µM); 0.464 in assay [1] (first compound 2.53 µM). In addition, the relative viability in assay [1] (first compound 8 µM) is 0.438; in assay [2] (first compound 0.08 µM), 0.67; in assay [2] (first compound 0.253 µM), 0.631; in assay [2] (first compound 0.8 µM) it was 0.57; in assay [2] (first compound 2.53 µM) it was 0.62; in assay [2] (first compound 8 µM) it was 0.719.

As for NCI-H1437, the relative viability is 0.846 with Shikonin + Lapatinib (first compound 0.01 µM); 0.78 in the assay with Shikonin + Lapatinib (first compound 0.1 µM); 0.884 in the assay with Shikonin + Lapatinib (first compound 0.3162 µM); 0.848 in the assay with Shikonin + Lapatinib (first compound 1 µM); 1.37 in the assay with Shikonin + Foretinib (first compound 0.01 µM); 1.26 in the assay with Shikonin + Foretinib (first compound 0.1 µM). Further, the relative viability stood at 1.26 with Shikonin + Foretinib (first compound 0.3162 µM); 1.27 with Shikonin + Foretinib (first compound 1 µM); 0.604 in assay [1] (first compound 0.08 µM); 0.642 in assay [1] (first compound 0.253 µM); 0.624 in assay [1] (first compound 0.8 µM); 0.592 in assay [1] (first compound 2.53 µM). Besides, the relative viability in assay [1] (first compound 8 µM) was determined as 0.561; in assay [2] (first compound 0.08 µM), 0.804; in assay [2] (first compound 0.253 µM) it was 0.831; in assay [2] (first compound 0.8 µM), 0.81; in assay [2] (first compound 2.53 µM) it was 0.891; in assay [2] (first compound 8 µM), 0.867.

For the cell line NCI-H1650, the relative viability came out at 0.758 with Shikonin + Lapatinib (first compound 0.01 µM); 0.819 with Shikonin + Lapatinib (first compound 0.1 µM); 0.684 with Shikonin + Lapatinib (first compound 0.3162 µM); 0.757 with Shikonin + Lapatinib (first compound 1 µM); 1.18 with Shikonin + Foretinib (first compound 0.01 µM); 1.07 in the assay with Shikonin + Foretinib (first compound 0.1 µM). Also, the relative viability was found to be 0.985 with Shikonin + Foretinib (first compound 0.3162 µM); 1.32 with Shikonin + Foretinib (first compound 1 µM); 0.662 in assay [1] (first compound 0.08 µM); 0.922 in assay [1] (first compound 0.253 µM); 0.805 in assay [1] (first compound 0.8 µM); 0.642 in assay [1] (first compound 2.53 µM). Moreover, the relative viability in assay [1] (first compound 8 µM) was found to be 0.754; in assay [2] (first compound 0.08 µM), 0.567; in assay [2] (first compound 0.253 µM) it was 0.696; in assay [2] (first compound 2.53 µM), 0.744; in assay [2] (first compound 8 µM) it was 0.703.

NCI-H1651: the relative viability was determined as 0.714 with Shikonin + Lapatinib (first compound 0.01 µM); 0.925 in the assay with Shikonin + Lapatinib (first compound 0.1 µM); 0.919 with Shikonin + Lapatinib (first compound 0.3162 µM); 0.844 with Shikonin + Lapatinib (first compound 1 µM); 0.883 with Shikonin + Foretinib (first compound 0.01 µM); 0.758 in the assay with Shikonin + Foretinib (first compound 0.1 µM). Also, the relative viability with Shikonin + Foretinib (first compound 0.3162 µM) amounted to 0.93; in the assay with Shikonin + Foretinib (first compound 1 µM), 0.714; in assay [1] (first compound 0.08 µM), 0.174; in assay [1] (first compound 0.253 µM), 0.197; in assay [1] (first compound 0.8 µM), 0.17; in assay [1] (first compound 2.53 µM) it was 0.185. For the same cell line, the relative viability in assay [1] (first compound 8 µM) was 0.173; in assay [2] (first compound 0.08 µM), 0.671; in assay [2] (first compound 0.253 µM), 0.556; in assay [2] (first compound 0.8 µM) it was 0.653; in assay [2] (first compound 2.53 µM), 0.811; in assay [2] (first compound 8 µM) it was 0.77.

These data come from the supplement of paper PMC10307832.
